Patent US10822334B2, “ErbB receptor inhibitors” (Dizal (Jiangsu) Pharmaceutical Co., Ltd., priority 2018, dated 2020)
Read-outs that look alike come from different tables or passages of the source.

Assays:
[1] = Blood brain barrier penetration assay in rats (short oral absorption model); assay type: in vivo; details: for Kp uu: male, Han Wistar, rat, po
Experimental: In vitro blood, plasma and brain binding assay was carried out with equilibrium dialysis device. Diluted blood (1:1with DPBS pH7.4), EDTA-anticoagulated plasma, and brain homogenate (1:3 with DPBS pH7.4) were spiked with 5 μM test compound (in triplicate) and dialyzed against equal volume of 150 μL 100 mM PBS buffer (pH7.4) at 37° C. for appropriate equilibration time in a slowly rotated plate. At the end of incubation, a 50 μL aliquot from the receiver side and a 5 μL from the donor chamber were taken. The 5 μL sample was further diluted with 45 μL of blank blood, plasma or brain homogenate. Paired samples were matrix-matched with either buffer or blank matrix, and mixed for 2 min, and then precipitated with 150 μL cold acetonitrile with 100 ng/mL tolbutamide as internal standard. After centrifuging at 4000 rpm for 20 min, supernatant was diluted with 0.1% formic acid aqueous solution and analyzed for LC/MS/MS (API 4000, Applied Biosystems, Foster City). Unbound fraction (fu) of test compound were calculated by the ratio of the buffer side response to the brain homogenate/plasma/blood side response, and unbound fraction (fu,bl, fu,pl and fu,br) of test compound in non-diluted blood and tissue were calculated from measured fu in homogenate and diluted blood with the following equation: fu,bl (fu,br)=(1/D)/[(1/fu−1)+1/D)]. D is dilution factor. (D equates 1 for plasma, 2 for blood, and 4 for brain)
A Short oral absorption (SOA) model is an in-vivo screening model to identify brain penetration of a compound. Six male Han Wistar rats purchased from Beijing Vital River were orally dosed with the compound. At predefined time point post-dose, cerebral spinal fluid (CSF) was collected from cisterna magna, and blood samples (>60 μL/time point/each site) were collected via cardiac puncture, into separate EDTA anti-coagulated tubes, and then immediately diluted with 3-fold volume of water for blood samples, or centrifuged at 4000 g for 10 min to obtain plasma. Brain tissue was harvested and homogenized in 3× volume of 100 mM phosphate buffered saline (pH7.4). All samples were stored at ˜−70° C. prior to LC/MS/MS analysis.
Standards were prepared by spiking blank plasma, blood, brain homogenate and artificial CSF. Homogenized brain tissue along with blood/plasma samples were precipitated by adding 3-fold volume of cold acetonitrile containing internal standard, and 10 μL of CSF samples were precipitated with 100 μL of cold acetonitrile containing internal standard. After 2 min vortex and 5 min centrifugation at 14,000 rpm, supernatant was analyzed by LC/MS/MS (API 4000, Applied Biosystems, Foster City). Two sets of standard curves were run at the beginning and end of each batch from blood sample analysis. For brain and CSF samples, one standard curve was analyzed along with test samples.
Total brain levels, expressed as brain/blood ratio (Kp,brain) were measured by AUC(brain)/AUC(blood or plasma) in rodents after oral administration. Similarly, CSF levels represented by a ratio of CSF/blood exposure (Kp,CSF) were determined by AUC(CSF)/AUC(blood or plasma). Free fraction of test compound in biological matrix was determined by in vitro blood and brain binding assay.
Kp,uubrain and Kp,uu CSF was calculated by the following equation: Kp,uu brain=AUC(brain)/AUC(blood or plasma)×(fubrain/fublood/plasma) and Kp,uu CSF=AUC(CSF)/AUC(blood or plasma)×(1/fublood/plasma).

BT474 cells = experiment: BT474 anti-proliferation assay (MTS); assay type: cell-based; details: Homo sapiens
Experimental: A compound's activity of selective inhibition for HER2 wild type amplification can be evaluated with BT474 cell line (ATCC® HTB-20™). The cell line expressed phosphorylated HER2 protein and its proliferation depended on the amplified gene, which could be used for in vitro PD and anti-proliferation assays.
The anti-proliferation activity of compounds were determined as following procedure: The BT474 cells were sorted in 384 well plates with the DMEM medium containing 10% FBS and […] overnight and then dosed with tested compounds at a series of concentrations (30 μM, 10 μM, 3 μM, 0.3 μM, 0.1 μM, 0.03 μM, 0.01 μM, 0.001 μM) on next day. Meanwhile, another cells plate was prepared for measuring GO value on next day. The dosed plates were incubate for 72h at 37° C. with 5% CO2 and the number of viable cells in each well of GO or dosed plates were measured by MTS (CellTiter 96® AQueous One Solution Cell Proliferation Assay, Promega) endpoint. This assay is a colorimetric method for determining the number viable cells in the proliferation assay. Detection reagents (5 μl) was dispensed into per well, and the plates were incubated for 2 hrs at room temperature. Then, absorbance at 490 nm and 650 nm (reference wavelength) in each well was measured using the safile II. (Tecan). The percentage of proliferation was got from the formula: % Proliferation=100×(G3 value of sample well-Go value)/(G3 value of DMSO control-Go value). The GI50 values were further calculated as the compounds concentration required for 50% Proliferation in best-fit curves using Genedata Screener® software.

WT EGFR = WT EGFR (Homo sapiens (Human), UniProt P00533); experiment: EGFR (Y1068) phosphorylation in NCI-H838 cells (MSD); assay type: cell-based; details: p-EGFR (Y1068)/total EGFR, 4 h, hEGF stimulation
WT HER2 = WT HER2 (Homo sapiens (Human), UniProt P04626); experiment: HER2 (Y1248) phosphorylation in BT474 cells (MSD); assay type: cell-based; details: p-HER2 (Y1248)/total HER2, 4 h, read-out: HER2 WT Amplification BT474 IC50
Experimental: The plates were incubated for 4 h at 37° C. with 5% CO2 and then the HER2 (Y1248) phosphorylation level of cells in each well were measured with MSD Kit (Phospho-ErbB2 ([…]) Assay Whole Cell Lysate Kit: Cat # […]-3). The assay is a electrochemiluminescent method (MESO SCALE DISCOVERY) for determining both phosphorylated and total HER2 of cells with an MSD SECTOR® Imager and then the ratio of p-HER2/total HER2 can be generated by the machine.

[2] = BT-474, BT474 cells, 72 h, MTS, read-out: HER2 WT Amplification BT474 GI50
[3] = CSF, male Han Wistar rats, oral, AUC(CSF)/AUC(blood or plasma) x 1/fu, read-out: Kp,uu CSF
[4] = brain, male Han Wistar rats, oral, AUC(brain)/AUC(blood or plasma) x fu ratio, read-out: Kp,uu brain

Sequence of WT EGFR (P00533 25-1210): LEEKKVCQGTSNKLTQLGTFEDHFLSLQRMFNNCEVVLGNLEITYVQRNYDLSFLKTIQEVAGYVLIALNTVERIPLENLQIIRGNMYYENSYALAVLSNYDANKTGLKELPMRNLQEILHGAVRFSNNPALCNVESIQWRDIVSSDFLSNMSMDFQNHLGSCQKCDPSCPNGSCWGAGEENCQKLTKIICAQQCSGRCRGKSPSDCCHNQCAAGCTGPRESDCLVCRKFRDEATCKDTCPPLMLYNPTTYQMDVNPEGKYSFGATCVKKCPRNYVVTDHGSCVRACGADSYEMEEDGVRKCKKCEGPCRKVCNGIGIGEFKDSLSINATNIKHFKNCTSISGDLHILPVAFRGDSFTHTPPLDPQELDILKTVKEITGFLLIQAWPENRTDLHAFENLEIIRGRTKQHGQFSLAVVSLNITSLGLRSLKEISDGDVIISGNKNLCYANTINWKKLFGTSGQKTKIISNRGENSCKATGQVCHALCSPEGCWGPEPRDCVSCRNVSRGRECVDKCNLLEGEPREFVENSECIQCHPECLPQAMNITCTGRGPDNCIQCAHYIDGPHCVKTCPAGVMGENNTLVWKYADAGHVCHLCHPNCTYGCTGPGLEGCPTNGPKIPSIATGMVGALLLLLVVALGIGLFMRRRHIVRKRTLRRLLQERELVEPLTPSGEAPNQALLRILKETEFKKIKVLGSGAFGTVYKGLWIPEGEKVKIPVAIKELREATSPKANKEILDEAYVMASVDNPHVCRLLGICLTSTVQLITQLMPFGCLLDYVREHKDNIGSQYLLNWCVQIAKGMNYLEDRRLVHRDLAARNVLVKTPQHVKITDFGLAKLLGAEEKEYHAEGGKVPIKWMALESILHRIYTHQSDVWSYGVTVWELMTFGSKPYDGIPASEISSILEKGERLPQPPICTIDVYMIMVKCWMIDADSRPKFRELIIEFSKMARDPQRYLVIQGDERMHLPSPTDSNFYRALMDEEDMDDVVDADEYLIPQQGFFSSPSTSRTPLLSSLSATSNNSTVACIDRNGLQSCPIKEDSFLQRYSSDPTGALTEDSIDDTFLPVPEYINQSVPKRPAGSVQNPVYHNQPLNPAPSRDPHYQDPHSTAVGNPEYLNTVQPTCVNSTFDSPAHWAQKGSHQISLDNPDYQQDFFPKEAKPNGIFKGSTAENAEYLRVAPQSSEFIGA
Sequence of WT HER2 (P04626 23-1255): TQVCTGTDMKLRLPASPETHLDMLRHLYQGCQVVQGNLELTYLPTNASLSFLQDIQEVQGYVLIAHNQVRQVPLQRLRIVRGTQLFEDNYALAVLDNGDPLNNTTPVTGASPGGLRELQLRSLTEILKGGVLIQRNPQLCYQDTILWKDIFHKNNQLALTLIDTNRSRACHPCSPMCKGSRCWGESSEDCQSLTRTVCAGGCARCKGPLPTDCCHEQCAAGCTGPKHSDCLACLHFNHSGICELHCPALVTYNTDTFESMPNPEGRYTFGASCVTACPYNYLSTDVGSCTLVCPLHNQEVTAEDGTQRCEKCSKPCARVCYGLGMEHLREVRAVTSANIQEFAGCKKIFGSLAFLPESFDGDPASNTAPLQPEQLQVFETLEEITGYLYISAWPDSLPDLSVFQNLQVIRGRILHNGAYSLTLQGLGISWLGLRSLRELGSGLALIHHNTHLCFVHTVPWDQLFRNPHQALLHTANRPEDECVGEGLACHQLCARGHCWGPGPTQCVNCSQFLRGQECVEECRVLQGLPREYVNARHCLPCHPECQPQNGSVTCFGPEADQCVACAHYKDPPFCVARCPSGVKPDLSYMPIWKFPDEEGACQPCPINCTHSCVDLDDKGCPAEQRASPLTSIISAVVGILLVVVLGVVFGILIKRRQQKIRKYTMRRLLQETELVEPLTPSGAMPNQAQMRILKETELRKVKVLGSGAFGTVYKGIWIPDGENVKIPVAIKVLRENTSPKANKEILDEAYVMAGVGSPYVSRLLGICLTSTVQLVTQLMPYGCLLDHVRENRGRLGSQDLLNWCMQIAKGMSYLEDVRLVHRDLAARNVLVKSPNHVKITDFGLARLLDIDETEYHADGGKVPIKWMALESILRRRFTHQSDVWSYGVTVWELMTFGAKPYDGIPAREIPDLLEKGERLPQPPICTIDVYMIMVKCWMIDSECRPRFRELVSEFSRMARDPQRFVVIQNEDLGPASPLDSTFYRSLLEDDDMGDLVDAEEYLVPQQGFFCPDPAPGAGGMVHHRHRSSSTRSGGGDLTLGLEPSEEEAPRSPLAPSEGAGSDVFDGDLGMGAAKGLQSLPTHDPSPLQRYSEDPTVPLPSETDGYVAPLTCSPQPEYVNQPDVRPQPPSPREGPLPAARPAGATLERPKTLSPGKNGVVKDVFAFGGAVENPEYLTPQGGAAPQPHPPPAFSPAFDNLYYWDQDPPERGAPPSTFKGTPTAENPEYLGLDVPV

SMILES	Kp uu ([1]; in vivo, Kp,uu CSF)	Kp uu ([1]; in vivo, Kp,uu brain)	GI50 (BT474 cells; [2]) [nM]	IC50 (WT EGFR) [nM]	IC50 (WT HER2) [nM]	Kp uu [1, 3]	Kp uu [1, 4]	Kp,uu CSF ([1]; male Han Wistar rats, oral, AUC(CSF)/AUC(blood or plasma) x 1/fu)	Kp,uu brain ([1]; male Han Wistar rats, oral, AUC(brain)/AUC(blood or plasma) x fu ratio)	GI50 (BT474 cells; BT-474, 72 h, read-out: HER2 WT Amplification BT474 GI50 (nM)) [nM]
Cc1cc(Nc2ncnc3cccc(O[C@@H]4C[C@H]5CC[C@@H](C4)N5C)c23)ccc1Oc1ccn2ncnc2c1 [Compound 20, N-(4-([1,2,4]triazolo[1,5-a]pyridin-7-yloxy)-3-methylphenyl)-5-(((1R,3s,5S)-8-methyl-8-azabicyclo[3.2.1]octan-3-yl)oxy)quinazolin-4-amine]	0.07	0.08	41 ± 1.55	> 10000	12.6					
COc1cc(OC2CCN(C)CC2(F)F)c2c(Nc3cc(C)c(Oc4ccn5ncnc5c4)cc3F)ncnc2c1 (single isomer, unassigned) [Compound 14]			26.8 ± 11.5	1390	19.7	0.24	0.04			
CCOc1cc2ncc(C#N)c(Nc3ccc(OCc4ccccn4)c(Cl)c3)c2cc1NC(=O)/C=C/CN(C)C [Neratinib, reference compound]								AUC(CSF) below	AUC(brain) below	0.71 ± 0.08
COc1cc(O[C@H]2CCN(C)CC2(F)F)c2c(Nc3ccc(Oc4ccn5ncnc5c4)c(C)c3)ncnc2c1 (single isomer, unassigned) [Compound 6]			18.7 ± 9.16	3290 ± 1350	19.6 ± 8.76	0.56	0.18			
[2H]C([2H])([2H])N1CCC(Oc2cccc3ncnc(Nc4ccc(Oc5ccn6ncnc6c5)c(C)c4)c23)C(F)(F)C1 (single isomer, unassigned) [Compound 24, N-(4-([1,2,4]triazolo[1,5-a]pyridin-7-yloxy)-3-methylphenyl)-5-((3,3-difluoro-1-(methyl-d3)piperidin-4-yl)oxy)quinazolin-4-amine]			50.8	> 10000	9.38	1.44	0.23			
Cc1cc(Nc2ncnc3cccc(OC4CC(C)N(C)CC4(F)F)c23)ccc1Oc1ccn2ncnc2c1 (single isomer, unassigned) [Compound 19]			11.5	> 10000	9.56 ± 3.13	0.4	0.1			
[2H]C([2H])([2H])N1CC[C@H](Oc2cccc3ncnc(Nc4ccc(Oc5ccn6ncnc6c5)c(C)c4)c23)C[C@@H]1C(F)(F)F (racemic) [Compound 25, (±)-N-(4-([1,2,4]triazolo[1,5-a]pyridin-7-yloxy)-3-methylphenyl)-5-(((2R,4S)-1-(methyl-d3)-2-(trifluoromethyl)piperidin-4-yl)oxy)quinazolin-4-amine]			47.2	> 10000	16.8	1.92	0.11			
[2H]C1(Oc2cc(OC)cc3ncnc(Nc4ccc(Oc5ccn6ncnc6c5)c(C)c4)c23)CCN(C)CC1(F)F (racemic) [Compound 27, (±)-N-(4-([1,2,4]triazolo[1,5-a]pyridin-7-yloxy)-3-methylphenyl)-5-((3,3-difluoro-1-methylpiperidin-4-yl-4-d)oxy)-7-methoxyquinazolin-4-amine]			22.1	5130	10.3	0.52	0.1			
Cc1cc(Nc2ncnc3cccc(OC4CCN(C)CC4(F)F)c23)ccc1Oc1ccn2ncnc2c1 (single isomer, unassigned) [Compound 1, N-(4-([1,2,4]triazolo[1,5-a]pyridin-7-yloxy)-3-methylphenyl)-5-((3,3-difluoro-1-methylpiperidin-4-yl)oxy)quinazolin-4-amine]			24.2 ± 24	> 3000	6.86	1.44	0.23			
[2H]C([2H])([2H])N1CCC([2H])(Oc2cc(OC)cc3ncnc(Nc4ccc(Oc5ccn6ncnc6c5)c(C)c4)c23)C(F)(F)C1 (single isomer, unassigned) [Compound 28]			35.8	5220	22.4	0.52	0.11			
Cc1cc(Nc2ncnc3cc(F)cc(OC4CCN(C)CC4(F)F)c23)ccc1Oc1ccn2ncnc2c1 (single isomer, unassigned) [Compound 17]			126 ± 9.01	> 3000	44	1.02	0.07			
COc1cc(O[C@H]2CCNCC2(F)F)c2c(Nc3ccc(Oc4ccn5ncnc5c4)c(C)c3)ncnc2c1 [Compound 16, (S)-N-(4-([1,2,4]triazolo[1,5-a]pyridin-7-yloxy)-3-methylphenyl)-5-((3,3-difluoropiperidin-4-yl)oxy)-7-methoxyquinazolin-4-amine]			14.3 ± 13.6	3060 ± 80.2	10.6 ± 2.4	0.11	0.03			
